The first data set deals with T1, human TLR7 (Homo sapiens, UniProt Q9NYK1).
T1 construct: host or cells: HEK293 (HEK-Blue hTLR7)
T1 sequence (Q9NYK1 27-1049): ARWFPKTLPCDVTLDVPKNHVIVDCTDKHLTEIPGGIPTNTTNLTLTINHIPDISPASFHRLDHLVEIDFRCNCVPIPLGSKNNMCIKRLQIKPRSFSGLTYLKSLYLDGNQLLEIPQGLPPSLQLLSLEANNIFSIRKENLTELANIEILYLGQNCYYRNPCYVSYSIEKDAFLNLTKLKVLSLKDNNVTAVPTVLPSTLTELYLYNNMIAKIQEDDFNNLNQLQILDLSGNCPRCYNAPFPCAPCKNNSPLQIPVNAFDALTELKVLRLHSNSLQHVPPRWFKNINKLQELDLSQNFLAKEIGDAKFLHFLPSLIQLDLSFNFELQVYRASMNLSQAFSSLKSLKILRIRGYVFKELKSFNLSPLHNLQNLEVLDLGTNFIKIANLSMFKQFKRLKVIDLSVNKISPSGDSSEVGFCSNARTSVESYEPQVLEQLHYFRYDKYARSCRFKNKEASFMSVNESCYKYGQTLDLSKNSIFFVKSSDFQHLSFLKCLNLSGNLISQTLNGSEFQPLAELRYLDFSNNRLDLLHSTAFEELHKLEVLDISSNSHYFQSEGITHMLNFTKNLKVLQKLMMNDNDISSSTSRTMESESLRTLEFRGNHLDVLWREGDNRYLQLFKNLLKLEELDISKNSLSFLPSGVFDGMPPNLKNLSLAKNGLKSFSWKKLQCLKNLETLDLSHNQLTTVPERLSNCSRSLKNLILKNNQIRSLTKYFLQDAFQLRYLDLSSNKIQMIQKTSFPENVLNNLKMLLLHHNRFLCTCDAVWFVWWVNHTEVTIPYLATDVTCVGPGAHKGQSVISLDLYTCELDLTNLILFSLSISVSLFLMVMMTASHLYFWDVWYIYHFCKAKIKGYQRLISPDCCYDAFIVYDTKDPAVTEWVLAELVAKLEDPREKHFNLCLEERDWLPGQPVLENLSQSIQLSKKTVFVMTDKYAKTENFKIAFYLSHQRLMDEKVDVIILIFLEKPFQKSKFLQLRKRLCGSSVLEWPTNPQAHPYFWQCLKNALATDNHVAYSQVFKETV
The data set is described as follows: HEK293-Blue-hTLR-7 cells assay (SEAP reporter, R848 stimulation). It counts as cell-based. Conditions: HEK293-Blue-hTLR7 cells, R848, 20 hrs; read-out: HEK/hTLR7 IC50. An outline of the steps: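 HEK293-Blue-hTLR7 cells (NF-κB/AP-1-driven SEAP reporter) were stimulated with R848 alongside serially diluted compound at 1% final DMSO for 20 h at 37 °C. Supernatant SEAP was then developed with QUANTI-Blue for 2 h at 37 °C and absorbance read at 620–655 nm; antagonism is measured as reduced reporter signal.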
In the case of `COC1CNC[C@H]1Nc1cccc(N2CCN(C[C@H]3CN(c4ccc(C#N)c5ncccc45)C[C@@H](C)O3)CC2)n1` (stereo in doubt) [Example 39, 5-[(2S,6R)-2-[[4-[6-[[(3R,4R)-4-methoxypyrrolidin-3-yl]amino]-2-pyridyl]piperazin-1-yl]methyl]-6-methyl-morpholin-4-yl]quinoline-8-carbonitrile], the IC50 came to 0.051 µM. Regarding `Cc1cc(N2CCN(C[C@H]3CN(c4ccc(C#N)c5nccnc45)C[C@@H](C)O3)CC2)nc(N2CCNCC2)n1` [Example 64, 8-[(2R,6S)-2-methyl-6-[[4-(6-methyl-2-piperazin-1-yl-pyrimidin-4-yl)piperazin-1-yl]methyl]morpholin-4-yl]quinoxaline-5-carbonitrile], the IC50 amounted to 0.005 µM. On to `Cc1cc(N2CCN(C[C@H]3CN(c4ccc(C(F)(F)F)c5nccnc45)C[C@@H](C)O3)CC2)nc(N2CCNCC2)n1` [Example 65, (2R,6S)-2-methyl-6-[[4-(6-methyl-2-piperazin-1-yl-pyrimidin-4-yl)piperazin-1-yl]methyl]-4-[8-(trifluoromethyl)quinoxalin-5-yl]morpholine], for which the IC50 turned out to be 0.015 µM. On to `Cc1cc(N2CCN(C[C@H]3CN(c4ccc(C#N)c5ncccc45)C[C@@H](C)O3)CC2)nc(N2CCNCC(O)C2)n1` (stereo partly drawn) [Example 66, 5-[(2S,6R)-2-[[4-[2-(6-hydroxy-1,4-diazepan-1-yl)-6-methyl-pyrimidin-4-yl]piperazin-1-yl]methyl]-6-methyl-morpholin-4-yl]quinoline-8-carbonitrile], for which the IC50 was 0.017 µM. On the same count and under the same terms, for `Cc1cc(N2CCN(C[C@H]3CN(c4ccc(C#N)n5ncc(F)c45)C[C@@H](C)O3)CC2)nc(N2CCNCC2)n1` [Example 67, 3-Fluoro-4-[(2R,6S)-2-methyl-6-[[4-(6-methyl-2-piperazin-1-yl-pyrimidin-4-yl)piperazin-1-yl]methyl]morpholin-4-yl]pyrazolo[1,5-a]pyridine-7-carbonitrile] the value was 0.024 µM.

Turning to `Cc1cc(N2CCNCC2)nc(N2CCN(C[C@H]3CN(c4ccc(C#N)c5ncccc45)C[C@@H](C)O3)CC2)n1` [Example 68, 5-[(2R,6S)-2-methyl-6-[[4-(4-methyl-6-piperazin-1-yl-pyrimidin-2-yl)piperazin-1-yl]methyl]morpholin-4-yl]quinoline-8-carbonitrile], the IC50 was determined as 0.009 µM.

With `C[C@@H]1CN(c2ccc(C#N)n3ncc(F)c23)C[C@H](CN2CCN(c3ccc(N4CC5(CNCCO5)C4)nc3)CC2)O1` [Example 169, 3-fluoro-4-[(2R,6S)-2-methyl-6-[[4-[6-(5-oxa-2,8-diazaspiro[3.5]nonan-2-yl)-3-pyridyl]piperazin-1-yl]methyl]morpholin-4-yl]pyrazolo[1,5-a]pyridine-7-carbonitrile], the IC50 is 0.009 µM. Same read-out and setting: for `C[C@@H]1CN(c2cc(=O)n(C)c3ncccc23)C[C@H](CN2CC(c3ccc(N4CCNCC4)cc3)C2)O1` [Example 171, 1-methyl-4-[(2R,6S)-2-methyl-6-[[3-(4-piperazin-1-ylphenyl)azetidin-1-yl]methyl]morpholin-4-yl]-1,8-naphthyridin-2-one] the value was 0.038 µM; for `C[C@@H]1CN(c2cc(=O)n(C)c3ncccc23)C[C@H](CN2CC(c3ccc(N4CC5(CNCCO5)C4)cc3)C2)O1` [Example 173, 1-methyl-4-[(2R,6S)-2-methyl-6-[[3-[4-(5-oxa-2,8-diazaspiro[3.5]nonan-2-yl)phenyl]azetidin-1-yl]methyl]morpholin-4-yl]-1,8-naphthyridin-2-one], 0.029 µM; for `C[C@@H]1CN(c2ccc(C#N)n3ncc(F)c23)C[C@H](CN2CCN(c3ccc(N4CC[C@@H](N)[C@H](F)C4)nc3)CC2)O1` [Example 175, 4-[(2S,6R)-2-[[4-[6-[(3R,4R)-4-amino-3-fluoro-1-piperidyl]-3-pyridyl]piperazin-1-yl]methyl]-6-methyl-morpholin-4-yl]-3-fluoro-pyrazolo[1,5-a]pyridine-7-carbonitrile], 0.01 µM. Same read-out and setting: for `C[C@@H]1CN(c2cc(=O)n(C)c3ncccc23)C[C@H](CN2CC(c3ccc(N4CC(C)(N)C4)cc3)C2)O1` [Example 176, 4-[(2S,6R)-2-[[3-[4-(3-amino-3-methyl-azetidin-1-yl)phenyl]azetidin-1-yl]methyl]-6-methyl-morpholin-4-yl]-1-methyl-1,8-naphthyridin-2-one] the value was 0.036 µM. Same read-out and setting: for `C[C@@H]1CN(c2ccc(C#N)n3ncc(F)c23)C[C@H](CN2CCN(c3ccc([C@@H]4CNCCO4)cc3)CC2)O1` [Example 177, 3-fluoro-4-[(2R,6S)-2-methyl-6-[[4-[4-[(2R)-morpholin-2-yl]phenyl]piperazin-1-yl]methyl]morpholin-4-yl]pyrazolo[1,5-a]pyridine-7-carbonitrile] the value was 0.016 µM; for `C[C@@H]1CN(c2ccc(C#N)n3ncc(F)c23)C[C@H](CN2CCN(c3ccc(N4CCOC5(CNC5)C4)nc3)CC2)O1` [Example 178, 3-fluoro-4-[(2R,6S)-2-methyl-6-[[4-[6-(5-oxa-2,8-diazaspiro[3.5]nonan-8-yl)-3-pyridyl]piperazin-1-yl]methyl]morpholin-4-yl]pyrazolo[1,5-a]pyridine-7-carbonitrile], 0.038 µM; for `C[C@@H]1CN(c2ccc(C#N)n3ncc(F)c23)C[C@H](CN2CCN(c3ccc(N4CC5(CCN5)C4)nc3)CC2)O1` [Example 179, 4-[(2S,6R)-2-[[4-[6-(1,6-diazaspiro[3.3]heptan-6-yl)-3-pyridyl]piperazin-1-yl]methyl]-6-methyl-morpholin-4-yl]-3-fluoro-pyrazolo[1,5-a]pyridine-7-carbonitrile], 0.03 µM. On to `C[C@@H]1CN(c2cc(=O)n(C)c3ncccc23)C[C@H](CN2CC(c3ccc(N4CC5(CN(C)C5)C4)cc3)C2)O1` [Example 180, 1-methyl-4-[(2R,6S)-2-methyl-6-[[3-[4-(6-methyl-2,6-diazaspiro[3.3]heptan-2-yl)phenyl]azetidin-1-yl]methyl]morpholin-4-yl]-1,8-naphthyridin-2-one], for which the IC50 came to 0.053 µM. The same measure, in the same setting: for `C[C@@H]1CN(c2cc(=O)n(C)c3ncccc23)C[C@H](CN2CC(c3ccc(N4C[C@H]5NCCO[C@@H]5C4)cc3)C2)O1` [Example 182, 4-[(2S,6R)-2-[[3-[4-[(4aR,7aR)-3,4,4a,5,7,7a-hexahydro-2H-pyrrolo[3,4-b][1,4]oxazin-6-yl]phenyl]azetidin-1-yl]methyl]-6-methyl-morpholin-4-yl]-1-methyl-1,8-naphthyridin-2-one] the value was 0.026 µM. With `C[C@@H]1CN(c2ccc(C#N)n3ncc(F)c23)C[C@H](CN2CCN(c3ccc([C@@H]4CNCCO4)c(F)c3)CC2)O1` [Example 184, 3-fluoro-4-[(2S,6R)-2-[[4-[3-fluoro-4-[(2R)-morpholin-2-yl]phenyl]piperazin-1-yl]methyl]-6-methyl-morpholin-4-yl]pyrazolo[1,5-a]pyridine-7-carbonitrile], the IC50 was determined as 0.023 µM.

`C[C@@H]1CN(c2ccc(C#N)n3ncc(F)c23)C[C@H](CN2CCN(c3ccc(C4(C)CNCCO4)cc3)CC2)O1` (stereo partly drawn) [Example 185, 3-fluoro-4-[(2R,6S)-2-methyl-6-[[4-[4-(2-methylmorpholin-2-yl)phenyl]piperazin-1-yl]methyl]morpholin-4-yl]pyrazolo[1,5-a]pyridine-7-carbonitrile]: the IC50 was determined as 0.039 µM. With `C[C@@H]1CN(c2ccc(C#N)n3ncc(F)c23)C[C@H](CN2CCN(c3ccc(C[C@@H]4CNCCO4)cc3)CC2)O1` [Example 186, 3-fluoro-4-[(2R,6S)-2-methyl-6-[[4-[4-[[(2R)-morpholin-2-yl]methyl]phenyl]piperazin-1-yl]methyl]morpholin-4-yl]pyrazolo[1,5-a]pyridine-7-carbonitrile], the IC50 was 0.018 µM.

Another data set deals with T2, CYP2C9 (Homo sapiens, UniProt P11712).
T2 construct: tissue BD-Gentest 452117; host or cells: human liver microsomes
T2 sequence (P11712 whole entry): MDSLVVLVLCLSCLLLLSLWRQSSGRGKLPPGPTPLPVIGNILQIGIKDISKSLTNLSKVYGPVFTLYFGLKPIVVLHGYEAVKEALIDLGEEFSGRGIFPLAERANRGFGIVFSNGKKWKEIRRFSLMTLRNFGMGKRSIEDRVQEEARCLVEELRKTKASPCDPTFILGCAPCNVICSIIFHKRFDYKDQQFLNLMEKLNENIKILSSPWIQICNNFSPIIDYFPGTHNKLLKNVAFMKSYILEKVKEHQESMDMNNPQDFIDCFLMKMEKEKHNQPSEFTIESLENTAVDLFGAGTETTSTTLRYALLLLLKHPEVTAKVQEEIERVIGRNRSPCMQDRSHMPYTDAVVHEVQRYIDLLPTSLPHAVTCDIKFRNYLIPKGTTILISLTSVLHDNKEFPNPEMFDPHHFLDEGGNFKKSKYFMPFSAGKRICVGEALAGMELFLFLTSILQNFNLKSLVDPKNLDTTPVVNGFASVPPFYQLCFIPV
The data set is described as follows: CYP inhibition assay in human liver microsome, CYP2C9. The data set is classed as in vitro ADME. Conditions: human, human liver microsomes, probe diclofenac 5 μM, substrate diclofenac 5 μM, first value of 2C9/2D6/3A4. In outline:
(§1)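 Pooled human liver microsomes with a substrate for each CYP were incubated with compound at 37 °C after NADPH addition, for 5 min (CYP2D6: 10 min), then quenched with acetonitrile containing labelled metabolite standards. Metabolite/internal-standard peak area ratios were measured by RapidFire MS/MS. % inhibition was scaled between DMSO and standard-inhibitor controls.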
For orientation: Liver microsomes are a subcellular fraction often used to study metabolism.
For `COC1CNC[C@H]1Nc1cccc(N2CCN(C[C@H]3CN(c4ccc(C#N)c5ncccc45)C[C@@H](C)O3)CC2)n1` (stereo in doubt) [Example 39, 5-[(2S,6R)-2-[[4-[6-[[(3R,4R)-4-methoxypyrrolidin-3-yl]amino]-2-pyridyl]piperazin-1-yl]methyl]-6-methyl-morpholin-4-yl]quinoline-8-carbonitrile], the inhibition (as a rule, the relative decrease from the control value, in per cent) at 5 min, 10 µM was 23%.

For a further data set, the target named is T3, CYP2D6 (Homo sapiens, UniProt P10635).
T3 construct: tissue BD-Gentest 452117; host or cells: human liver microsomes
T3 sequence (P10635 whole entry): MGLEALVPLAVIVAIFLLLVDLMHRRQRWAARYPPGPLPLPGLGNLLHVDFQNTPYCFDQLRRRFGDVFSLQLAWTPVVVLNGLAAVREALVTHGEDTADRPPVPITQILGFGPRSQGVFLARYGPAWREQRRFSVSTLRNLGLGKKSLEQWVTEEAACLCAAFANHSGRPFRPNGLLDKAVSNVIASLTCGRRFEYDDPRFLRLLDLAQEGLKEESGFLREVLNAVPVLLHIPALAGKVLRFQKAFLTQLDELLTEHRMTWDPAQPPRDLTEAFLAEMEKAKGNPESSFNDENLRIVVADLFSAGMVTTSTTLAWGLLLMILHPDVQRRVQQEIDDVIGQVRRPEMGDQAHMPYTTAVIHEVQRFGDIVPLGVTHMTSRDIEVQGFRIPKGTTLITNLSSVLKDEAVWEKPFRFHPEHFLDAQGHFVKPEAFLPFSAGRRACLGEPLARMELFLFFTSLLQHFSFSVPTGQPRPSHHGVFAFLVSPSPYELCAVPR
Description: CYP inhibition assay in human liver microsome, CYP2D6. The data set is classed as in vitro ADME. Conditions: human, human liver microsomes, probe dextromethorphan 5 μM, substrate dextromethorphan 5 μM, second value of 2C9/2D6/3A4. In outline:
as §1
Turning to `COC1CNC[C@H]1Nc1cccc(N2CCN(C[C@H]3CN(c4ccc(C#N)c5ncccc45)C[C@@H](C)O3)CC2)n1` (stereo in doubt) [Example 39, 5-[(2S,6R)-2-[[4-[6-[[(3R,4R)-4-methoxypyrrolidin-3-yl]amino]-2-pyridyl]piperazin-1-yl]methyl]-6-methyl-morpholin-4-yl]quinoline-8-carbonitrile], the inhibition at 10 min, 10 µM was -4%.

Values taken from US20210395239A1 (Hoffmann-La Roche Inc., priority 2018, published 2021).
